Measurements taken from the NIST ThermoML archive (doi:10.1021/je060271a).

Settings: 283.15 K, Liquid, Vibrating tube method

CCCCC(=O)OCC(COC(=O)CCCC)(COC(=O)CCCC)COC(=O)CCCC [pentaerythritol tetrapentanoate]
Settings | mass density [kg/m3]
21592 kPa | 1039.3
21628 kPa | 1039.2
21658 kPa | 1039.2
21689 kPa | 1039.3
21727 kPa | 1039.4
21760 kPa | 1039.4
21791 kPa | 1039.4
21822 kPa | 1039.5
21860 kPa | 1039.5
21891 kPa | 1039.5
21922 kPa | 1039.5
21954 kPa | 1039.5
21992 kPa | 1039.5
22024 kPa | 1039.5
22061 kPa | 1039.6
22093 kPa | 1039.7
22125 kPa | 1039.5
22164 kPa | 1039.5
22192 kPa | 1039.6
22231 kPa | 1039.6
22263 kPa | 1039.6
22302 kPa | 1039.7
22335 kPa | 1039.7
22367 kPa | 1039.8
22406 kPa | 1039.7
22439 kPa | 1039.8
22472 kPa | 1039.7
22512 kPa | 1039.8
22545 kPa | 1039.8
22579 kPa | 1039.8
22619 kPa | 1040
22654 kPa | 1039.9
22687 kPa | 1039.9
22721 kPa | 1039.9
22762 kPa | 1039.8
22796 kPa | 1040
22830 kPa | 1039.9
22871 kPa | 1040
22905 kPa | 1040
22947 kPa | 1039.9
22982 kPa | 1040.1
23016 kPa | 1039.9
23059 kPa | 1040
23094 kPa | 1040.1
23129 kPa | 1040.1
23164 kPa | 1040.2
23208 kPa | 1040.1
23243 kPa | 1040.3
23285 kPa | 1040.3
23321 kPa | 1040.3
23357 kPa | 1040.2
23394 kPa | 1040.2
23437 kPa | 1040.3
23473 kPa | 1040.2
23516 kPa | 1040.4
23553 kPa | 1040.3
23590 kPa | 1040.4
23635 kPa | 1040.3
23672 kPa | 1040.4
23709 kPa | 1040.5
23746 kPa | 1040.5
23790 kPa | 1040.5
23827 kPa | 1040.5
23872 kPa | 1040.5
23909 kPa | 1040.5
23947 kPa | 1040.5
24000 kPa | 1040.6
24048 kPa | 1040.5
24099 kPa | 1040.6
24162 kPa | 1040.7
24208 kPa | 1040.8
24238 kPa | 1040.7
24266 kPa | 1040.7
24299 kPa | 1040.8
24327 kPa | 1040.8
24360 kPa | 1040.9
24388 kPa | 1040.7
24416 kPa | 1040.9
24444 kPa | 1040.9
24478 kPa | 1040.9
24506 kPa | 1040.9
24535 kPa | 1041
24569 kPa | 1040.9
24598 kPa | 1041
24626 kPa | 1040.9
24660 kPa | 1040.9
24689 kPa | 1040.9
24718 kPa | 1041
24746 kPa | 1041
24781 kPa | 1041.2
24810 kPa | 1041
24845 kPa | 1041.1
24874 kPa | 1041.2
24903 kPa | 1041.1
24934 kPa | 1041.1
24964 kPa | 1041.1
24999 kPa | 1041
25028 kPa | 1041.2
25058 kPa | 1041.2
25088 kPa | 1041.2
25124 kPa | 1041.1
25154 kPa | 1041.2
25183 kPa | 1041.2
25219 kPa | 1041.3
25249 kPa | 1041.3
25279 kPa | 1041.3
25347 kPa | 1041.3
25380 kPa | 1041.4
25410 kPa | 1041.3
25441 kPa | 1041.5
25477 kPa | 1041.3
25508 kPa | 1041.3
25544 kPa | 1041.4
25575 kPa | 1041.5
25606 kPa | 1041.5
25642 kPa | 1041.6
25673 kPa | 1041.4
25705 kPa | 1041.4
25742 kPa | 1041.3
25775 kPa | 1041.5
25806 kPa | 1041.6
25837 kPa | 1041.5
25875 kPa | 1041.6
25907 kPa | 1041.6
25939 kPa | 1041.7
25977 kPa | 1041.6
26009 kPa | 1041.6
26041 kPa | 1041.6
26079 kPa | 1041.7
26111 kPa | 1041.7
26143 kPa | 1041.7
26176 kPa | 1041.8
26216 kPa | 1041.7
26249 kPa | 1041.8
26282 kPa | 1041.8
26315 kPa | 1041.8
26354 kPa | 1041.8
26388 kPa | 1041.9
26421 kPa | 1041.8
26461 kPa | 1041.9
26494 kPa | 1042
26528 kPa | 1041.8
26567 kPa | 1042
26601 kPa | 1041.9
26635 kPa | 1041.9
26669 kPa | 1042
26710 kPa | 1042
26744 kPa | 1042.1
26778 kPa | 1042.1
26818 kPa | 1042
26853 kPa | 1042.1
26893 kPa | 1042.1
26928 kPa | 1042.1
26963 kPa | 1042.2
26997 kPa | 1042.1
27039 kPa | 1042.2
27074 kPa | 1042.2
27110 kPa | 1042.3
27152 kPa | 1042.2
27187 kPa | 1042.3
